Measured values from US20110212968A1, “PHENETHYLAMIDE DERIVATIVES AND THEIR HETEROCYCLIC ANALOGUES” (priority 2008, published 2011).

Columns and labels:
human orexin-1 receptor = molecular target: T1, human orexin-1 receptor (Homo sapiens, UniProt O43613); test: Intracellular calcium measurement (FLIPR Tetra), orexin receptor antagonistic activity, OX1; type: cell-based; conditions: CHO cells expressing human orexin-1 receptor, 3 nM orexin-A, conditions B, normalized (*) using IC50 of on-plate reference compound
T1 construct: expressed in transfected cells; host or cells: CHO (Chinese hamster ovary) cells, kept under G418 selection
T1 sequence (O43613 1-425): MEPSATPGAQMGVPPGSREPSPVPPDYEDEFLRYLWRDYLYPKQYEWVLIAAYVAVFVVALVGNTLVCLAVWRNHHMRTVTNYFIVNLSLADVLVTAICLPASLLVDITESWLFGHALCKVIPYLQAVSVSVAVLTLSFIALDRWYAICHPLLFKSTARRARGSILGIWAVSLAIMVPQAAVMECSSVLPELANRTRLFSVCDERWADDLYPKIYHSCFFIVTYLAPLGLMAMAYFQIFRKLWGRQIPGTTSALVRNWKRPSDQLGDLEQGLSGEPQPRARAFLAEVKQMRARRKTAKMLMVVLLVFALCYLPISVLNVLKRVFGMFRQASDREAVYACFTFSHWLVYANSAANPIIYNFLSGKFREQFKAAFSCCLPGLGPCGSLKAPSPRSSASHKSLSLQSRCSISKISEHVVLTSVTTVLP
In short: (§1)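 Recombinant CHO cells expressing human OX1 or OX2, loaded with fluo-4 AM plus probenecid, were preincubated with antagonist 10 min, then stimulated with 3 nM human orexin-A. Peak fluorescence was compared with vehicle; IC50 derived, sometimes normalized to an on-plate reference compound; two pipetting/cell-splitting conditions were used.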

human orexin-2 receptor = molecular target: T2, human orexin-2 receptor (Homo sapiens, UniProt O43614); test: Intracellular calcium measurement (FLIPR Tetra), orexin receptor antagonistic activity, OX2; type: cell-based; conditions: CHO cells expressing human orexin-2 receptor, 3 nM orexin-A, conditions B, normalized (*) using IC50 of on-plate reference compound
T2 construct: expressed in transfected cells; host or cells: CHO (Chinese hamster ovary) cells, kept under G418 selection
T2 sequence (O43614 1-444): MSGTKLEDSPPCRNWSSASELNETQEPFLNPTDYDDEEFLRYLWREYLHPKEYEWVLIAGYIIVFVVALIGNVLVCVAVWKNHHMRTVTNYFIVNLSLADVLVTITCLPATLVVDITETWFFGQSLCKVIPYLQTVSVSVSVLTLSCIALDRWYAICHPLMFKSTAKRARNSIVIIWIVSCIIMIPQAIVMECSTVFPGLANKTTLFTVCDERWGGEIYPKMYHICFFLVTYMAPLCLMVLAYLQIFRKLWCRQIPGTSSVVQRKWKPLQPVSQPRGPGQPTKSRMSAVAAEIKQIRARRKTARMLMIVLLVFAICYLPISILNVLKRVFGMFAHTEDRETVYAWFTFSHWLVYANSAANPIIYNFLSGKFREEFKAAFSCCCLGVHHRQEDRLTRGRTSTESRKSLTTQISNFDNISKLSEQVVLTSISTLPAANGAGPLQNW
In short: as §1

Structure (SMILES) | IC50 (human orexin-1 receptor) [nM] | IC50 (human orexin-2 receptor) [nM]
Cc1ccc(-c2ncncc2C(=O)N(CCc2c[nH]c3ccccc23)CC2CC2)cc1C [Example 504, 4-(3,4-Dimethyl-phenyl)-pyrimidine-5-carboxylic acid cyclopropylmethyl-[2-(1H-indol-3-yl)-ethyl]-amide] | 31 | 17
COc1cccc(-c2ncncc2C(=O)N(CCc2c[nH]c3ccccc23)CC2CC2)c1 [Example 506, 4-(3-Methoxy-phenyl)-pyrimidine-5-carboxylic acid cyclopropylmethyl-[2-(1H-indol-3-yl)-ethyl]-amide] | 259 | 15
O=C(c1cncnc1-c1cccc(F)c1)N(CCc1c[nH]c2ccccc12)CC1CC1 [Example 510, 4-(3-Fluoro-phenyl)-pyrimidine-5-carboxylic acid cyclopropylmethyl-[2-(1H-indol-3-yl)-ethyl]-amide] | 352 | 25
O=C(c1cncnc1-c1ccc(Br)c(Cl)c1)N(CCc1c[nH]c2ccccc12)CC1CC1 [Example 513, 4-(4-Bromo-3-chloro-phenyl)-pyrimidine-5-carboxylic acid cyclopropylmethyl-[2-(1H-indol-3-yl)-ethyl]-amide] | 36 | 17
CCN(CCc1c[nH]c2ccccc12)C(=O)c1nccnc1-c1cccc(OC)c1 [Example 533, 3-(3-Methoxy-phenyl)-pyrazine-2-carboxylic acid ethyl-[2-(1H-indol-3-yl)-ethyl]-amide] | 2370 | 258
CCN(CCc1c[nH]c2ccccc12)C(=O)c1cncnc1-c1ccc(Br)c(Cl)c1 [Example 536, 4-(4-Bromo-3-chloro-phenyl)-pyrimidine-5-carboxylic acid ethyl-[2-(1H-indol-3-yl)-ethyl]-amide] | 262 | 9
CCN(CCc1c[nH]c2ccccc12)C(=O)c1cncnc1-c1cccc(OC)c1 [Example 541, 4-(3-Methoxy-phenyl)-pyrimidine-5-carboxylic acid ethyl-[2-(1H-indol-3-yl)-ethyl]-amide] | 2930 | 151
CCN(CCc1c[nH]c2ccccc12)C(=O)c1cncnc1-c1ccc(Cl)c(Cl)c1 [Example 544, 4-(3,4-Dichloro-phenyl)-pyrimidine-5-carboxylic acid ethyl-[2-(1H-indol-3-yl)-ethyl]-amide] | 177 | 15
Cc1cccc(-c2ncncc2C(=O)N(CCc2c[nH]c3ccccc23)CC(F)(F)F)c1 [Example 549, 4-m-Tolyl-pyrimidine-5-carboxylic acid [2-(1H-indol-3-yl)-ethyl]-(2,2,2-trifluoro-ethyl)-amide] | 1160 | 130
Cc1cc(F)cc(-c2nccnc2C(=O)N(CCc2c[nH]c3ccccc23)CC(F)(F)F)c1 [Example 556, 3-(3-Fluoro-5-methyl-phenyl)-pyrazine-2-carboxylic acid [2-(1H-indol-3-yl)-ethyl]-(2,2,2-trifluoro-ethyl)-amide] | 425 | 212
COCCOc1cccc(-c2sc(C)nc2C(=O)N(CCc2c[nH]c3ccccc23)CC(=O)OC)c1 [Example 587, ([2-(1H-Indol-3-yl)-ethyl]-{5-[3-(2-methoxy-ethoxy)-phenyl]-2-methyl-thiazole-4-carbonyl}-amino)-acetic acid methyl ester] | 404 | 38
COC(=O)CN(CCc1c[nH]c2ccccc12)C(=O)c1nc(C)sc1-c1cccc(Br)c1 [Example 590, {[5-(3-Bromo-phenyl)-2-methyl-thiazole-4-carbonyl]-[2-(1H-indol-3-yl)-ethyl]-amino}-acetic acid methyl ester] | 468 | 10
COC(=O)CN(CCc1c[nH]c2ccc(F)cc12)C(=O)c1cnc(C)nc1-c1ccc(Cl)c(Cl)c1 [Example 604, {[4-(3,4-Dichloro-phenyl)-2-methyl-pyrimidine-5-carbonyl]-[2-(5-fluoro-1H-indol-3-yl)-ethyl]-amino}-acetic acid methyl ester] | 421 | 196
Cc1cccc(-c2oc(C3CC3)nc2C(=O)N(CCc2c[nH]c3ccccc23)CC2CC2)c1 [Example 607, 2-Cyclopropyl-5-m-tolyl-oxazole-4-carboxylic acid cyclopropylmethyl-[2-(1H-indol-3-yl)-ethyl]-amide] | 383 | 35
